Consider 16 compounds from ChEMBL document CHEMBL1133401 (Bioorg Med Chem Lett, 2000).

Each structure is given as a SMILES string. ≈ marks a conversion by molar mass, not a printed value.

For one data set, the target named is T1, Adenosine receptor A1 (Cavia porcellus, UniProt P47745).
T1 sequence (P47745 whole entry): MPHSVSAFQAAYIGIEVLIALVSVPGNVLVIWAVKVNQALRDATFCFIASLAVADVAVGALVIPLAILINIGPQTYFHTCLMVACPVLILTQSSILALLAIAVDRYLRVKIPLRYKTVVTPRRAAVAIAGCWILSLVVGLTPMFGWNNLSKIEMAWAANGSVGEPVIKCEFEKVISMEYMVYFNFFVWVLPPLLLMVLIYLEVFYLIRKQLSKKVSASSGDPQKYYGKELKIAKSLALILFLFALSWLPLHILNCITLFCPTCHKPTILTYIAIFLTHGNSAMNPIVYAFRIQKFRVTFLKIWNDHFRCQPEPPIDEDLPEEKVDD
Kind of data set: Ex vivo inhibition of guinea pig ileum twitch via Adenosine A1 receptor. Format: tissue-based.

The nature of data set [1]: The compound was evaluated for the aqueous solubility at pH value of 2.6. As to conditions: pH 2.6. Format: physicochemical.
Data set [2] deals with T2, Adenosine receptor A2a (Rattus norvegicus, UniProt P30543). Nature of the data set: (§1) Agonistic activity against Adenosine A2A receptor on rat striatal membranes. Format: functional, Striatum, Membrane.
T2 sequence (P30543 whole entry): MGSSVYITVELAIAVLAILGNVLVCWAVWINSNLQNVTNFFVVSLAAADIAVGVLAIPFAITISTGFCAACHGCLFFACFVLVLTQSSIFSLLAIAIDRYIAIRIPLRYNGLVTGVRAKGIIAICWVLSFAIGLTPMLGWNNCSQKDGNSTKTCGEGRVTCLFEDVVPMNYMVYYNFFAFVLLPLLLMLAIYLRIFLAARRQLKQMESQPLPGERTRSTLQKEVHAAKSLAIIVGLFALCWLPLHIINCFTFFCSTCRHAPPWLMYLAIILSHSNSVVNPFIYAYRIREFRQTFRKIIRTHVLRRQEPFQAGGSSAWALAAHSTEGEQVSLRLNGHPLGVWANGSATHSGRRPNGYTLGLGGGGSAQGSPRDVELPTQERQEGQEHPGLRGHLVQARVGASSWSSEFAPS
Data set [3] concerns the target T2, Adenosine receptor A2a. Described as §1.

One may read the solubility as the concentration that dissolves in the medium under given conditions. A high value points to much dissolved substance. What is called Ki is a dissociation constant, usually derived from enzyme kinetics or from competition with a known ligand. Higher therefore signals weaker binding.

`CCNC(=O)[C@H]1O[C@@H](n2cnc3c(NCC(c4ccccc4)c4ccccc4)nc(NCCc4c[nH]cn4)nc32)[C@H](O)[C@@H]1O` came in with an ECR at Adenosine receptor A1 of 672. Besides, in data set [1], the solubility is not below 1820 µg/mL.

`CCNC(=O)[C@H]1O[C@@H](n2cnc3c(N)nc(N[C@@H]4CCC[C@H]4O)nc32)[C@H](O)[C@@H]1O` yielded an ECR on Adenosine receptor A1 of 260.

In the case of `CCNC(=O)[C@H]1O[C@@H](n2cnc3c(NCC(c4ccccc4)c4ccccc4)nc(N[C@@H]4CCC[C@H]4O)nc32)[C@H](O)[C@@H]1O`, the ECR on Adenosine receptor A1 worked out at 390.

On Adenosine receptor A2a [2], `OC[C@H]1O[C@@H](n2cnc3c(NCc4cccc5ccccc45)nc(NC4CCCCC4)nc32)[C@H](O)[C@@H]1O` gave a Ki of 10.3 µM.

The compound `OC[C@H]1O[C@@H](n2cnc3c(NC4CCCC4)nc(Cl)nc32)[C@H](O)[C@@H]1O` registered an ECR on Adenosine receptor A1 of 1.

At Adenosine receptor A1, `CCNC(=O)[C@H]1O[C@@H](n2cnc3c(NCC(c4ccccc4)c4ccccc4)nc(NCCN4CCCCC4)nc32)[C@H](O)[C@@H]1O.O=C(O)C(F)(F)F` displayed an ECR of 263. In data set [1], this compound returned a solubility not below 1870 µg/mL.

Take `CCNC(=O)[C@H]1O[C@@H](n2cnc3c(N)nc(NC4CCCC4)nc32)[C@H](O)[C@@H]1O`: the ECR at Adenosine receptor A1 stood at 80.

Compound `Nc1nc(N[C@H]2CCC[C@@H]2O)nc2c1ncn2[C@@H]1O[C@H](CO)[C@@H](O)[C@H]1O` displayed an ECR at Adenosine receptor A1 of 84.

`CCNC(=O)[C@H]1O[C@@H](n2cnc3c(NCC(c4ccccc4)c4ccccc4)nc(NC4CCCC4)nc32)[C@H](O)[C@@H]1O` returned an ECR at Adenosine receptor A1 of more than 5000. Further, the solubility in data set [1] came out at 24 µg/mL (≈ 42 µM).

As for `Nc1nc(NC2CCCC2)nc2c1ncn2[C@@H]1O[C@H](CO)[C@@H](O)[C@H]1O`, the ECR at Adenosine receptor A1 amounted to 549.

The compound `Nc1nc(N[C@@H]2CCC[C@H]2O)nc2c1ncn2[C@@H]1O[C@H](CO)[C@@H](O)[C@H]1O` came in with an ECR at Adenosine receptor A1 of 1470.

Consider `OC[C@H]1O[C@@H](n2cnc3c(NCCc4cccc(Cl)c4)nc(NC4CCCC4)nc32)[C@H](O)[C@@H]1O`, for which the ECR at Adenosine receptor A1 was more than 1000.

The compound `OC[C@H]1O[C@@H](n2cnc3c(N[C@@H]4CCC[C@@H]4O)nc(Cl)nc32)[C@H](O)[C@@H]1O` gave an ECR at Adenosine receptor A1 of 2.

`OC[C@H]1O[C@@H](n2cnc3c(NCc4cccc5ccccc45)ncnc32)[C@H](O)[C@@H]1O`: on Adenosine receptor A2a [3], the Ki turned out to be 0.0094 µM.

At Adenosine receptor A1, `OC[C@H]1O[C@@H](n2cnc3c(NCC(c4ccccc4)c4ccccc4)nc(NC4CCCC4)nc32)[C@H](O)[C@@H]1O` yielded an ECR of more than 612.

With `CCNC(=O)[C@H]1O[C@@H](n2cnc3c(NCC(c4ccccc4)c4ccccc4)nc(N[C@H]4CC[C@H](N)CC4)nc32)[C@H](O)[C@@H]1O.O=C(O)C(F)(F)F`, the ECR at Adenosine receptor A1 was determined as 369. The compound also came in with a solubility in data set [1] of 1570 µg/mL.
